{
  "source": "paper PMC10820527",
  "about": "“Synthesis, Characterization, and Investigation of Anti-Inflammatory and Cytotoxic Activities of Novel Thiourea Derivatives of Naproxen” (Pharmaceutics, 2023)",
  "key": {"HCT 116": {"system": "HCT 116", "assay": "MTT cytotoxicity assay, HCT 116", "type": "cell-based, human", "settings": "for IC50: Homo sapiens, mean ± SD", "protocol": "Three cancer cell lines (MDA-MB-231, HCT116 and HeLa; i.e., human breast cancer cells, human colorectal cancer cells, and human cervical cancer cells, respectively), and one non-malignant fibroblast MRC-5 cell line (control) were used in this study. The American Type Cell Collection (ATCC, Manassas, VA, USA) provided all examined cell lines. The cells were grown in a complete medium made up of high-glucose DMEM media supplemented with 10% fetal bovine serum and […] L-glutamine (both from Sigma-Aldrich, USA). The cells were cultured in 25 cc flasks (Thermo Fischer Scientific, Waltham, MA, USA) at 37 °C with 100% humidity in a 5% CO2 atmosphere.\nThe MTT test was used to assess the cytotoxicity of compounds 1–14 [44]. The cytotoxicity of naproxen was also investigated due to its clinical use and structural similarity. Throughout the exponential development period, cells were taken from culture flasks and counted, and 5 × 10^3 cells/well were planted into 96-well culture plates. Following that, the cell lines were treated with varying doses of the investigated chemicals (1–14), naproxen ([…]), and fresh complete media as a control. All evaluated cells were incubated for 24, 48, and 72 h at 37 °C in an environment containing 5% CO2 and 100% humidity. Following incubation, each well’s culture media was taken out, each well received an addition of MTT solution at a final concentration of 0.5 mg/mL, and the cells were left to incubate for an additional four hours. The MTT solution was then withdrawn carefully, and the formazan crystals were dissolved in DMSO. After shaking the plates for 10 min, absorbance at 595 nm was measured using a multiplate reader (Zenyth 3100, Anthos Labtec Instruments, Salzburg, Austria). All concentrations of the tested compounds were performed in three separate wells of the microtiter plates and in three separate experiments. The results were reported as a ratio to the control value, untreated cells. IC50 values were also determined using Microsoft Office Excel 2021. The percentage of viable cells was estimated by dividing the readout absorbance value in the wells containing treated cells by the average absorbance value measured in the wells containing untreated cells, and multiplying the result by 100 [44]. % of the viable cells = ((absorbance of treated cell-absorbance of blank)/(absorbance of untreated cell-absorbance of blank)) × 100(3)"}, "[1]": {"system": "carrageenan-induced rat paw edema", "assay": "Carrageenan-induced rat paw edema model", "type": "in vivo", "settings": "for Rat Paw Thickness: mean ± SD; for inhibition in vivo at 2.5 mg/kg / inhibition in vivo at 5 mg/kg / inhibition in vivo at 10 mg/kg: Rattus norvegicus", "protocol": "The Carrageenan-induced rat paw edema model was used to assess the anti-inflammatory potential of novel compounds 8–14. Induction of inflammation was performed in all animals by intraplantar injection of […] 0.5% carrageenan saline into the left hind paw.\nAnimals (n = 200) were randomly divided into the following groups: control groups, that received either 1% DMSO or naproxen, and experimental groups, that received the novel compounds 8–14.\nControl groups included DMSO and naproxen groups. Rats belonging to the DMSO group received 1% DMSO in the same volume as the compounds 8–14, 60 min before carrageenan injection. Moreover, naproxen groups included rats that were subjected to naproxen treatment in three doses: 2.5 mg/kg, 5 mg/kg, and 10 mg/kg. Naproxen was applied in the same manner as 1% DMSO.\nExperimental groups included rats that were treated with compounds 8–14 and they were divided into three subgroups depending on the applied dose: 2.5 mg/kg, 5 mg/kg, and 10 mg/kg. The examined compounds were dissolved in 1% DMSO prior to treatment and applied to rats 60 min before inducing inflammation, i.e., before carrageenan injection. Doses of naproxen and investigated compounds were defined based on our previously published research.\nIn order to quantify the anti-inflammatory effects of the tested compounds, left paw thickness was measured at specific time points: prior to inflammation induction (moment 0) and 1, 2, 3, and 4 h (moments 1, 2, 3, and 4) following carrageenan injection. Tissue thickness was measured in the middle of the rat paw using a Digital Vernier caliper (Aerospace, China). The percentage of inhibition of paw edema after treatment with different agents was calculated according to the formula, Equation (2):% Inhibition = 100 × [1 − (Yt/Yc)](2) where Yt = average increase in paw thickness in the treated group of rats between two measurement moments, and Yc = average increase in paw thickness in the untreated group of rats between two measurement moments."}, "[2]": {"settings": "2.5 mg/kg, 1 h after carrageenan"}, "[3]": {"settings": "2.5 mg/kg, 2 h after carrageenan"}, "[4]": {"settings": "2.5 mg/kg, 3 h after carrageenan"}, "[5]": {"settings": "2.5 mg/kg, 4 h after carrageenan"}, "[6]": {"settings": "5.0 mg/kg, 1 h after carrageenan"}, "[7]": {"settings": "5.0 mg/kg, 2 h after carrageenan"}, "[8]": {"settings": "5.0 mg/kg, 3 h after carrageenan"}, "[9]": {"settings": "5.0 mg/kg, 4 h after carrageenan"}, "[10]": {"settings": "10.0 mg/kg, 1 h after carrageenan"}, "[11]": {"settings": "10.0 mg/kg, 2 h after carrageenan"}, "[12]": {"settings": "10.0 mg/kg, 3 h after carrageenan"}, "[13]": {"settings": "10.0 mg/kg, 4 h after carrageenan"}},
  "data": [
    {"smiles": "COc1ccc2cc([C@H](C)C(=O)NC(=S)Nc3ccccc3F)ccc2c1", "note": "[Compound 12, (S)-N-((2-fluorophenyl)carbamothioyl)-2-(6-methoxynaphthalen-2-yl)propanamide]", "values": [
      {"measurement": "Cytotoxic effect against the HCT 116 cell line (in words)", "setting": "HCT 116", "value": "moderate cytotoxic effects"},
      {"measurement": "IC50", "setting": "HCT 116; HCT-116, 24 h", "value": "> 200", "unit": "µM"},
      {"measurement": "IC50", "setting": "HCT 116; HCT-116, 48 h", "value": "159 ± 17.5", "unit": "µM"},
      {"measurement": "IC50", "setting": "HCT 116; HCT-116, 72 h", "value": "68.8 ± 9.5", "unit": "µM"},
      {"measurement": "Rat Paw Thickness", "setting": "[1]; [2]", "value": "6.83 ± 0.38", "unit": "mm"},
      {"measurement": "Rat Paw Thickness", "setting": "[1]; [3]", "value": "6.43 ± 0.40", "unit": "mm"},
      {"measurement": "Rat Paw Thickness", "setting": "[1]; [4]", "value": "6.00 ± 0.30", "unit": "mm"},
      {"measurement": "Rat Paw Thickness", "setting": "[1]; [5]", "value": "5.53 ± 0.06", "unit": "mm"},
      {"measurement": "Rat Paw Thickness", "setting": "[1]; [6]", "value": "6.07 ± 0.64", "unit": "mm"},
      {"measurement": "Rat Paw Thickness", "setting": "[1]; [7]", "value": "5.83 ± 0.49", "unit": "mm"},
      {"measurement": "Rat Paw Thickness", "setting": "[1]; [8]", "value": "5.57 ± 0.38", "unit": "mm"},
      {"measurement": "Rat Paw Thickness", "setting": "[1]; [9]", "value": "5.03 ± 0.12", "unit": "mm"},
      {"measurement": "Rat Paw Thickness", "setting": "[1]; [10]", "value": "6.33 ± 0.21", "unit": "mm"},
      {"measurement": "Rat Paw Thickness", "setting": "[1]; [11]", "value": "6.03 ± 0.06", "unit": "mm"},
      {"measurement": "Rat Paw Thickness", "setting": "[1]; [12]", "value": "5.60 ± 0.10", "unit": "mm"},
      {"measurement": "Rat Paw Thickness", "setting": "[1]; [13]", "value": "5.17 ± 0.21", "unit": "mm"},
      {"measurement": "inhibition in vivo at 2.5 mg/kg", "setting": "[1]; 2.5 mg/kg, 1 h", "value": 8.84, "unit": "%"},
      {"measurement": "inhibition in vivo at 2.5 mg/kg", "setting": "[1]; 2.5 mg/kg, 2 h", "value": 16.7, "unit": "%"},
      {"measurement": "inhibition in vivo at 2.5 mg/kg", "setting": "[1]; 2.5 mg/kg, 3 h", "value": 24.3, "unit": "%"},
      {"measurement": "inhibition in vivo at 2.5 mg/kg", "setting": "[1]; 2.5 mg/kg, 4 h", "value": 37.8, "unit": "%"},
      {"measurement": "inhibition in vivo at 5 mg/kg", "setting": "[1]; 5.0 mg/kg, 1 h", "value": 18.4, "unit": "%"},
      {"measurement": "inhibition in vivo at 5 mg/kg", "setting": "[1]; 5.0 mg/kg, 2 h", "value": 19.7, "unit": "%"},
      {"measurement": "inhibition in vivo at 5 mg/kg", "setting": "[1]; 5.0 mg/kg, 3 h", "value": 18.9, "unit": "%"},
      {"measurement": "inhibition in vivo at 5 mg/kg", "setting": "[1]; 5.0 mg/kg, 4 h", "value": 35.6, "unit": "%"},
      {"measurement": "inhibition in vivo at 10 mg/kg", "setting": "[1]; 10.0 mg/kg, 1 h", "value": 19.7, "unit": "%"},
      {"measurement": "inhibition in vivo at 10 mg/kg", "setting": "[1]; 10.0 mg/kg, 2 h", "value": 24.2, "unit": "%"},
      {"measurement": "inhibition in vivo at 10 mg/kg", "setting": "[1]; 10.0 mg/kg, 3 h", "value": 33.3, "unit": "%"},
      {"measurement": "inhibition in vivo at 10 mg/kg", "setting": "[1]; 10.0 mg/kg, 4 h", "value": 46.7, "unit": "%"}
    ]},
    {"smiles": "COc1ccc2cc([C@H](C)C(=O)NC(=S)Nc3ccccc3C)ccc2c1", "note": "[Compound 10, (S)-2-(6-methoxynaphthalen-2-yl)-N-(o-tolylcarbamothioyl)propanamide]", "values": [
      {"measurement": "Cytotoxic effect against the HCT 116 cell line (in words)", "setting": "HCT 116", "value": "moderate cytotoxic effects"},
      {"measurement": "IC50", "setting": "HCT 116; HCT-116, 24 h", "value": "120 ± 8.8", "unit": "µM"},
      {"measurement": "IC50", "setting": "HCT 116; HCT-116, 48 h", "value": "97.2 ± 6.8", "unit": "µM"},
      {"measurement": "IC50", "setting": "HCT 116; HCT-116, 72 h", "value": "33.3 ± 5.5", "unit": "µM"},
      {"measurement": "Rat Paw Thickness", "setting": "[1]; [2]", "value": "6.17 ± 0.51", "unit": "mm"},
      {"measurement": "Rat Paw Thickness", "setting": "[1]; [3]", "value": "6.07 ± 0.83", "unit": "mm"},
      {"measurement": "Rat Paw Thickness", "setting": "[1]; [4]", "value": "5.77 ± 0.85", "unit": "mm"},
      {"measurement": "Rat Paw Thickness", "setting": "[1]; [5]", "value": "5.17 ± 0.75", "unit": "mm"},
      {"measurement": "Rat Paw Thickness", "setting": "[1]; [6]", "value": "6.47 ± 0.51", "unit": "mm"},
      {"measurement": "Rat Paw Thickness", "setting": "[1]; [7]", "value": "6.13 ± 0.47", "unit": "mm"},
      {"measurement": "Rat Paw Thickness", "setting": "[1]; [8]", "value": "5.77 ± 0.32", "unit": "mm"},
      {"measurement": "Rat Paw Thickness", "setting": "[1]; [9]", "value": "5.67 ± 0.40", "unit": "mm"},
      {"measurement": "Rat Paw Thickness", "setting": "[1]; [10]", "value": "6.20 ± 0.36", "unit": "mm"},
      {"measurement": "Rat Paw Thickness", "setting": "[1]; [11]", "value": "5.93 ± 0.31", "unit": "mm"},
      {"measurement": "Rat Paw Thickness", "setting": "[1]; [12]", "value": "5.70 ± 0.44", "unit": "mm"},
      {"measurement": "Rat Paw Thickness", "setting": "[1]; [13]", "value": "5.20 ± 0.44", "unit": "mm"},
      {"measurement": "inhibition in vivo at 2.5 mg/kg", "setting": "[1]; 2.5 mg/kg, 1 h", "value": 18.4, "unit": "%"},
      {"measurement": "inhibition in vivo at 2.5 mg/kg", "setting": "[1]; 2.5 mg/kg, 2 h", "value": 13.6, "unit": "%"},
      {"measurement": "inhibition in vivo at 2.5 mg/kg", "setting": "[1]; 2.5 mg/kg, 3 h", "value": 13.5, "unit": "%"},
      {"measurement": "inhibition in vivo at 2.5 mg/kg", "setting": "[1]; 2.5 mg/kg, 4 h", "value": 33.3, "unit": "%"},
      {"measurement": "inhibition in vivo at 5 mg/kg", "setting": "[1]; 5.0 mg/kg, 1 h", "value": 29.3, "unit": "%"},
      {"measurement": "inhibition in vivo at 5 mg/kg", "setting": "[1]; 5.0 mg/kg, 2 h", "value": 36.4, "unit": "%"},
      {"measurement": "inhibition in vivo at 5 mg/kg", "setting": "[1]; 5.0 mg/kg, 3 h", "value": 44.1, "unit": "%"},
      {"measurement": "inhibition in vivo at 5 mg/kg", "setting": "[1]; 5.0 mg/kg, 4 h", "value": 37.8, "unit": "%"},
      {"measurement": "inhibition in vivo at 10 mg/kg", "setting": "[1]; 10.0 mg/kg, 1 h", "value": 19.7, "unit": "%"},
      {"measurement": "inhibition in vivo at 10 mg/kg", "setting": "[1]; 10.0 mg/kg, 2 h", "value": 22.7, "unit": "%"},
      {"measurement": "inhibition in vivo at 10 mg/kg", "setting": "[1]; 10.0 mg/kg, 3 h", "value": 20.7, "unit": "%"},
      {"measurement": "inhibition in vivo at 10 mg/kg", "setting": "[1]; 10.0 mg/kg, 4 h", "value": 35.6, "unit": "%"}
    ]}
  ]
}
